pEC50, pIC50: −log10 of the molar value. Several values for one entry are separate records, joined by “and”; a condition that tells them apart may be missing. Equal entries are not always repeated. Entries after “also recorded” stand apart in the source; their conditions may differ. Where two headings read alike, the source gives them in different places.

The test system of experiment [1] is Wnt/β-catenin transcription. Put plainly: Wnt/β-catenin transcription TOPFlash reporter assay. It counts as cell-based. To be noted: Wnt TopFlash IC50 over TMEM16A eYFP IC50. In general terms: A reporter such as luciferase makes a cellular process visible.
Experiment [2] has as its system Wnt/β-catenin transcription. To be noted: ref Mook et al. (2015); read-out: Mook et al. Wnt/β-catenin TopFlash (IC50); cited from earlier work.
Experiment [3] has as its target T1, hTMEM16A (abc) (Homo sapiens, UniProt Q5XXA6, DEL476-501).
T1 sequence (Q5XXA6 with tags, fused parts or gaps isoform Q5XXA6-5 DEL539-564): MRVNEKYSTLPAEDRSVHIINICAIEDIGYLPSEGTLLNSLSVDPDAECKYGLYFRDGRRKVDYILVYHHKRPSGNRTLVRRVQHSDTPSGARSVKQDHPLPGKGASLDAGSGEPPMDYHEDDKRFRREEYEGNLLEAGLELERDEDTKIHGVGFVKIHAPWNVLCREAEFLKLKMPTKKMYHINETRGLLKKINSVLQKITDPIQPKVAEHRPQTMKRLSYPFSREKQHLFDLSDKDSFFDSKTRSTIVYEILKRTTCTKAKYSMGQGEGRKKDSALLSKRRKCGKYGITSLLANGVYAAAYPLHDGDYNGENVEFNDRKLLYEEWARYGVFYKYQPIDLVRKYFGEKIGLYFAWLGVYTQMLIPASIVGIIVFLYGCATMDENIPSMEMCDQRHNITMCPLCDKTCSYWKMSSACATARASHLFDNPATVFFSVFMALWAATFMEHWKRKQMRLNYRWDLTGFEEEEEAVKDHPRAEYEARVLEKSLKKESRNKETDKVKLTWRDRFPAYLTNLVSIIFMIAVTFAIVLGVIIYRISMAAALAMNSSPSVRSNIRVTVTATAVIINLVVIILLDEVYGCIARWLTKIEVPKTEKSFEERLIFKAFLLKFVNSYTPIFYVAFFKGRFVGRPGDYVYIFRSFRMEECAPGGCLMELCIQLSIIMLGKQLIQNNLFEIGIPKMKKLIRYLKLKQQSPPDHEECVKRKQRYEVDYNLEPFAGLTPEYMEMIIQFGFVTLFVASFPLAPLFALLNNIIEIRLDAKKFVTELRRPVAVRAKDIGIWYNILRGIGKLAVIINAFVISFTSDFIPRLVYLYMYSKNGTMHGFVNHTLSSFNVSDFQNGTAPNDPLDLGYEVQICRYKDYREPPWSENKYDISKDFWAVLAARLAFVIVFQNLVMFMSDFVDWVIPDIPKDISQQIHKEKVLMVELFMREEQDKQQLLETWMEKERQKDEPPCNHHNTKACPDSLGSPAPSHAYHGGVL
Description: medchem TMEM16A halide-sensitive YFP assay, 22-point dose-response. It counts as cell-based. Also on record: expressed in transfected cells. The note with it: iodide as permeant anion. The procedure: The TMEM16A HEK293T eYFP (H149Q, I153L) stable cell line for medchem support was generated by transfecting 10 μg of linearized hTMEM16A(abc) DNA constructs into HEK293T eYFP (H149Q,I153L) stable cells. The transfected cells were cultured under 200 μg/ml of hygromycin B selection for 20 days and the stable pool was single cell seeded in 96 well plate and duplicated plate were made after single cell clones were formed. YFP function assay were performed on duplicated plate and clones producing higher changes in fluorescence from the YFP assay were chosen for further expansion to form a stable cell line.
Plates were incubated for 24 h at 37°C with 5% CO2. On the assay day, medium was removed and replaced with 20 μl/well of assay buffer (Hank’s Balanced Salt Solution with 10 mM HEPES pH 7.4), 10 μl/well of 40x diluted compounds was added to assay plate and it was incubated at room temperature for 30 min, after which baseline fluorescence was read in the FLIPR instrument for 10 s. Then, 5 μl/well of a 3x trigger solution (24 mM iodide, 3 μM ionomycin in assay buffer) was added and the fluorescence kinetic trace was recorded for 2 min.

Experiment [4] has as its system mouse tracheal rings. Put plainly: Bronchodilation of cytokine-treated mouse tracheal rings. The note with it: overnight IL-1β, TNFα, IL-13 100 ng/ml, EC75 carbachol. As for the experimental part: Airway rings were treated overnight in 2 ml DMEM + PSG/HEPES/AA/NaPyr buffer alone or with the same solution supplemented with 100 ng/ml of mTNFα, mIL-13 and mIL-1β. Unlike like the typical Wake-Up protocol and ring qualifying tests, mouse tracheal rings were not exposed to KPSS and rings were not observed to relax with a β-agonist following discovery of CCh dose-responses. After several washes with PSS, EC75 concentrations of CCh were used to pre-contract rings for >30 min alone or in the presence of cytokines.

Experiment [5] has as its system mouse airway rings. Put plainly: Duration of bronchodilation after washout and carbachol re-challenge, mouse airway rings. The note with it: EC75 carbachol, preliminary. The procedure:
Mouse airway rings were exposed to a typical Wake-Up procedure including the use of KPSS and discovery of EC75 CCh dose responses. However, no isoproterenol was used to observe tissue relaxation as part of the qualification procedure. With pre-contraction with EC75 CCh for >30 min, rings were subjected to a compound dose-response, followed by a complete washout of compound, and re-contracted with EC75 CCh. Traces were recorded for several hours thereafter and normalized to theophylline as control of 100% relaxation.

In experiment [6] the test system is mouse tracheal rings. Description: Wire myograph bronchodilation of carbachol pre-contracted mouse tracheal rings. As for the experimental part:
The trachea from C57 BL/6 mice was dissected and collected in PBS with Mg^2+ and Ca^2+. After further trimming, two 2 mm sections (rings) per trachea were then placed in DMEM media containing PSG/HEPES/AA/NaPyr for 1 h and used immediately or maintained overnight at 37°C in a humidified incubator with 5% CO2. Rings were then mounted into chambers of DMT wire myograph containing L-shaped mounting pins with 2–3 mN of force applied to secure rings on the pins and the rings were allowed to equilibrate for 25–30 min in a physiological saline buffer (PSS, 130 mM NaCl, 4.7 mM KCl, 1.2 mM MgS04, 14.9 mM NaHCO3, 1.2 mM KH2PO4, 0.026 mM EDTA, 1.6 mM CaCl2, 5.5 mM Dextrose). Throughout the experiment, rings were maintained at physiological temperature and gas conditions by heating buffer reservoir and chamber to 37°C and bubbling a 95% O2, 5% CO2 gas mixture into chamber.
After equilibration, a standard tissue “Wake-Up” procedure was applied by altering tension and then treatment with elevated potassium as follows: 3 mN tension was applied for 5–10 min, then another 2–3 mN tension to total of 5.5 mN and then to 7–8 mN for another 5 min; the tissue pre-tension was then set to 5 mN and allowed to equilibrate for 5–10 min followed by the removal of the PSS buffer and addition of KPSS (60 mM KCl, 74.7 mM NaCl in PSS solution), with force changes monitored until they reached a plateau. The tissue was then washed four times with PSS over 5 min and the KPSS treatment and washes repeated; the tissue was then allowed to sit in PSS for 10 min and the tension was set to 5 mN.
The tissue was then washed three times and then three times more with PSS for 5 min until tension returned to baseline.
Only tissue that passed the qualification tests above advanced to studies on test article compounds. […] For standard ascending dose-response studies on TMEM16A antagonists, an EC75 or EC95 concentration of CCh was used to pre-contract tracheal rings.

In experiment [7] the test system is mouse tracheal rings. Put plainly: β-agonist use-dependent desensitization of mouse tracheal rings. To be noted: round 2. An excerpt: Standard procedures were used to prepare and mount tissues.
Experiment [8] deals with mouse tracheal rings. Put plainly: Bronchodilation of mouse tracheal rings at differing levels of carbachol pre-contraction. The note with it: for relaxation of airway rings: normalized to theophylline. As for the experimental part:
Standard procedures as listed above were used to prepare, mount and Wake-Up tracheal rings and the concentrations of carbachol providing EC25, EC50, EC75, or EC95 levels of contraction for each ring was determined as described above.

Experiment [9] has as its system human bronchial rings. Put plainly: Wire myograph bronchodilation of histamine pre-contracted human bronchial rings (Biopta). An excerpt: Details of bronchodilator studies shown in Figure 5H, 6 and Supplementary Figure 40 are provided below as part of the end assay report on Study CUR011 by Lee Christie (Biopta). Donors with any of the following conditions were excluded from the study: asthma, COPD, emphysema, lung cancer, cystic fibrosis, pulmonary fibrosis, pulmonary hypertension, pneumonia. Donors were also excluded if they had smoked in the past 12 months. Non-transplantable lung tissue was acquired from organ donors post mortem. Any macroscopically diseased/necrotic tissue was rejected. […] Human airway rings were set up under isometric conditions on a wire myograph in order to examine the influence of the test articles on bronchodilation. In order to assess tissue viability, the airways were challenged with carbachol (10 μM) and then isoprenaline (10 μM) to assess their constriction and relaxation responses, respectively. […] Viable airways were pre-constricted with histamine (10 μM), then exposed to one of the following cumulative concentration response curves (CCRCs): positive control, vehicle (water, volume matched to positive control), test article, vehicle (DMSO concentration matched to test articles). At the end of each CCRC, theophylline (2.2 mM) was added to induce maximal relaxation of the tissue. […] Airways were re-tensioned to 1.0 – 1.5 g if the tension had dropped below 1.0 g during the first 30 min of equilibration. (b) Airways were exposed to carbachol (bath concentration 10 μM) in order to measure their contractile responses and then isoprenaline (10 μM) in order to assess their relaxation. Airways were washed out and allowed to return to baseline. (c) Airways were pre-constricted with histamine (10 μM) before conducting a CCRC to the test article, the positive control (isoprenaline), test article vehicle or positive control vehicle.

The mark [10] stands for this setting: supplement, maximum concentration 55.6, read-out: TMEM16A eYFP Assay IC50.

On to `CC(=O)c1ccc(NC(=O)c2cc(Cl)ccc2O)cc1` [Cpd 7], for which, in [1], the “IC50 Ratio, Wnt/TMEM16A” value is 2.45. Also, the pIC50 in experiment [2] was 5.19; in experiment [3] (setting [10]), 5.58.

As to `CS(=O)(=O)c1ccc(NC(=O)c2cc(Cl)ccc2O)c(Cl)c1` [Cpd 8], in [1], the “IC50 Ratio, Wnt/TMEM16A” value is 1.62. Further, the figures for the pIC50 in experiment [2] and in [3] (setting [10]) were 5.12 and 5.33, respectively.

For `O=C(Nc1cccc(C(F)(F)F)c1)c1cc(Cl)ccc1O` [Cpd 9], the “IC50 Ratio, Wnt/TMEM16A” value in [1] amounted to 6.85. Moreover, the pIC50 in experiment [2] is 6.05; in experiment [3] (setting [10]), 6.89.

In the case of `O=C(Nc1cccc(Cl)c1)c1cc(Cl)ccc1O` [Cpd 10], the “IC50 Ratio, Wnt/TMEM16A” value in experiment [1] amounted to 18.33. Also, the values for the pIC50 in [2] and in experiment [3] (setting [10]) were 5.78 and 7.05, respectively.

With `O=C(Nc1ccccc1Cl)c1cc(Cl)ccc1O` [Cpd 11], in [1], the “IC50 Ratio, Wnt/TMEM16A” value is 9.24. Moreover, the values for the pIC50 in experiment [2] and in experiment [3] (setting [10]) were 5.52 and 6.48, respectively.

As for `O=C(Nc1ccc(Cl)cc1Cl)c1cc(Cl)ccc1O` [Cpd 12], the “IC50 Ratio, Wnt/TMEM16A” value in experiment [1] is listed as 4.67. Further, the pIC50 in [2] was 6.38; in [3] (average, 22-point dose-response, read-out: TMEM16A eYFP Assay (IC50)) it was 7.06; in experiment [3] (setting [10]) it was 7.05.

`O=C(Nc1cc(Cl)cc(Cl)c1)c1cc(Cl)ccc1O` [Cpd 13]: the “IC50 Ratio, Wnt/TMEM16A” value in experiment [1] is 3.50. Moreover, the values for the pIC50 in [2] and in experiment [3] (setting [10]) were 6.15 and 6.70, respectively.

As for `O=C(Nc1ccc(Cl)c(Cl)c1)c1cc(Cl)ccc1O` [Cpd 14], in [1], the “IC50 Ratio, Wnt/TMEM16A” value is 8.11. For the same compound, the pIC50 is 6.14 in [2] and 7.05 in [3] (TMEM16A eYFP Assay IC50, supplement, maximum concentration 55.6).

Turning to `O=C(Nc1ccc(F)cc1)c1cc(Cl)ccc1O` [Cpd 16], the “IC50 Ratio, Wnt/TMEM16A” value in [1] is 15.36. The figures for the pIC50 in experiment [2] and in experiment [3] (setting [10]) were 5.42 and 6.60, respectively.

`O=C(Nc1ccc(F)cc1F)c1cc(Cl)ccc1O` [Cpd 17]: in experiment [1], the “IC50 Ratio, Wnt/TMEM16A” value was found to be 12.97. Also, the pIC50 in [2] was 5.40; in [3] (setting [10]) it was 6.51.

As to `CC(C)NCC(O)c1ccc(O)c(O)c1` (stereo not drawn) [Isoproterenol, isoproterenol], in experiment [4], the “bronchodilation of cytokine-treated airways” value was “dramatically reduced”. Besides, in experiment [5], the “duration of bronchodilation after washout and re-challenge” value is on record as “short-acting; also recorded: quickly lost”. In [6] (EC75 carbachol, 10 nM dose (Supplementary Figure 39)), the “time to relax mouse tracheal rings” value was 2 – 4 min and 2 − 4 min. The pEC50 in experiment [6] (EC75 carbachol, Exp 1-3, read-out: EC50 relaxation of mouse tracheal rings, individual experiments) is 8.23 and 8.11; in experiment [6] (Mus musculus, EC75 carbachol, Exp 1-3, read-out: EC50 relaxation of mouse tracheal rings, individual experiments), 8.09; in experiment [6] (Mus musculus, pre-contracted with EC75 carbachol, average, read-out: EC50 relaxation of mouse tracheal rings) it was 8.15; in experiment [9] (Homo sapiens, 10 μM histamine, read-out: EC50 bronchodilating histamine precontracted human airways), 7.52. In addition, the “% relaxation after second treatment and highest dose” value in experiment [7] (EC50 carbachol) is 78.6%; in experiment [7] (EC75 carbachol) it was 42.7%. Moreover, the “relaxation of airway rings” value in [8] (EC25 level of carbachol) is recorded as 100%; in experiment [8] (EC95 level of carbachol) it was 42%. In addition, the “bronchodilation of a single maximally contracted ring” value in experiment [8] (EC95 carbachol, highest dose (1 μM)) is 38% and 37.7%. For the same compound, the “time to steady-state relaxation of human bronchial rings” value in experiment [9] (histamine pre-contracted, 10 or 100 nM) is “less than 7 min”. In addition, in experiment [9] (summary), the “time to open airways” value is given as below 7 min.

What is called pEC50 is −log10 of the EC50, conventionally taken in molar units.

The values are drawn from paper PMC6382696, “Drug Repurposing: The Anthelmintics Niclosamide and Nitazoxanide Are Potent TMEM16A Antagonists That Fully Bronchodilate Airways” (Frontiers in Pharmacology, 2019).
